Here are results for 1 compound from publication PMC6009911, “Inhibition of human cytochromes P450 2A6 and 2A13 by flavonoids, acetylenic thiophenes and sesquiterpene lactones from Pluchea indica and Vernonia cinerea” (Journal of Enzyme Inhibition and Medicinal Chemistry, 2017).

Molecules are shown by their SMILES. Where two headings read alike, the source gives them in different places. Marks after values point to notes of the source that are not given here.

The target of data set [1] is T1, CYP2A13 (Homo sapiens, UniProt Q16696).
T1 construct: made in house
T1 sequence (Q16696 1-494): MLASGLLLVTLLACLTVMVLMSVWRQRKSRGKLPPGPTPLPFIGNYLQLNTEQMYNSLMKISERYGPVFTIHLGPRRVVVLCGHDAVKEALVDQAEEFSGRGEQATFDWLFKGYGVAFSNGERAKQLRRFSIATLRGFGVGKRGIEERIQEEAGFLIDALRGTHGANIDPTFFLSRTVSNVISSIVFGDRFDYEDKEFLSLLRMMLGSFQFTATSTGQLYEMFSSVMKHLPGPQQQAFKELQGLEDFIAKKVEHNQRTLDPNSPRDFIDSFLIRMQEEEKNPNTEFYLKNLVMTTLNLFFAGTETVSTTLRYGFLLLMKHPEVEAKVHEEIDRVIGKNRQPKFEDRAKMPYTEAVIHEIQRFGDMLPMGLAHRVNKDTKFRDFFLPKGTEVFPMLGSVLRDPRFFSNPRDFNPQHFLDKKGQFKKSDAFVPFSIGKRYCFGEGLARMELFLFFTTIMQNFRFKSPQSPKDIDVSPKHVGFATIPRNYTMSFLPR
Nature of the data set: Inhibition of CYP2A13-mediated coumarin 7-hydroxylation, enzymatic reconstitution assay. The data set is classed as biochemical. On the procedure: Inhibitory effect of plant extracts, fractions, subfractions and constituents was determined by inhibition assay on CYP2A6- and CYP2A13-mediated coumarin 7-hydroxylation. The recombinant human CYP2A6, CYP2A13 and rat NADPH-dependent cytochrome P450 oxidoreductase (CYPOR) proteins were expressed, purified, according to the methods previously described. […] Rate of 7-hydroxycoumarin product formation was measured on spectrofluorometer (Shimadzu, Kyoto, Japan) at λex = 355 nm, λem = 460 nm. Inhibition effects were determined by incubation with extracts, fractions or purified compounds with coumarin substrate in the reaction mixture and calculated as per cent relative inhibition compared with vehicle control reaction[20] and IC50 values were calculated using GraphPad Prism 5 (GraphPad Software Inc., La Jolla, CA).
(§1) MBI requires NADPH and time to generate reactive intermediate as inhibitor and ultimately inactivates the enzyme. MBI was evaluated by pre-incubation with each test inhibitor in the reaction at different time periods (0, 10, 20 and 30 min) in the presence of NADPH for time-dependent assay, as described. The apparent inactivation constants, KI and Kinact, were obtained from double reciprocal plots of kobs versus inhibitor concentrations by linear regression analysis on GraphPad Prism 5. Methoxsalen was used as a control mechanism-based inhibitor for time- and NADPH-dependent inhibition assays.

Data set [2] concerns the target T1, CYP2A13. As to the kind of experiment: Mechanism-based (time- and NADPH-dependent) inactivation of CYP2A13. The settings on record: pre-incubation 0-30 min with NADPH. The format is biochemical. On the procedure:
as §1

Data set [3] concerns the target T1, CYP2A13. Nature of the data set: Effects of trapping agents and dialysis on inactivation of CYP2A13. The format is biochemical. The settings on record: CYP2A13 inhibition reaction mixture, probe coumarin, compound 10 µM. On the procedure: as §1
To explore whether inactivation of CYP2As by thiophenes 9–11 and of CYP2A13 by hirsutinolides 5-8 could be reversed, the removal of reversible inhibitory compounds by dialysis and addition of trapping agents (GSH, semicarbazide, catalase or potassium ferricyanide) in the inhibition reaction mixture were performed. […] Similarly, mechanism-based inactivation of both CYP2A6 and CYP2A13 by thiophenes 9–11 could not be reversed (Table 3).

Data set [4] addresses T1, CYP2A13. Nature of the data set: Inhibition of CYP2A13-mediated nicotine metabolism. The format is biochemical. The settings on record: compound at IC50 value; nicotine 50 μM; 30 min; Supplemental Figure S2. As for the experimental part:
mixture with nicotine substrate (a final concentration of 50 μM) prior to initiation of each reaction with 50 μM NADPH at room temperature. Each reaction was terminated by addition of ice-cold acetronitrile at 30 min incubation and 50 pmol 7-hydroxycoumarin as internal standard was added. The reaction was centrifuged (12,000 rpm, 10 min, 4 °C) and 20 μl of each sample was analyzed on symmetry RP-C18 column (3.9×150 mm). Gradient condition was isocratic of 12% ACN: 2-propanol (7:3) in 10 mM potassium phosphate buffer (pH 7.4) at flow rate of 1 ml/min. The nicotine peak area in each reaction was compared with that of time zero. The enzyme activity was determined as percent substrate consumption over 30 min. The reactions were […]
(1 picture or pasted object on this page, not shown here)

Data set [5] deals with T2, CYP2A6 (Homo sapiens, UniProt P11509).
T2 sequence (P11509 1-494): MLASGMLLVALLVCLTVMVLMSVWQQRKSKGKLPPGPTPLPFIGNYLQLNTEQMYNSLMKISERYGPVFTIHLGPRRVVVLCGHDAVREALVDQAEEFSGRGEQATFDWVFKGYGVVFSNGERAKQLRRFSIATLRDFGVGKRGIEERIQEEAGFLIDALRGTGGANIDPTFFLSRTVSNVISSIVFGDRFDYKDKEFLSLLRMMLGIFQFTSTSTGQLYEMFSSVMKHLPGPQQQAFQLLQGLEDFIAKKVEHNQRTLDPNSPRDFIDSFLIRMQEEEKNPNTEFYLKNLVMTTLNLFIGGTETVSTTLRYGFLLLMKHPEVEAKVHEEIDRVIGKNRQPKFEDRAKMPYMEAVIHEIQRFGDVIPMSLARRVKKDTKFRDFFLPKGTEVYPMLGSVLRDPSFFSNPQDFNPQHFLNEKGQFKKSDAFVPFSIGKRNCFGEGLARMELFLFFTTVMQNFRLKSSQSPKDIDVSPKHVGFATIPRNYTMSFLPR
The settings on record: ref Prasopthum et al., 2015, cited from earlier work.

In data set [6] the target is T2, CYP2A6. Set-up: made in house. As to conditions: ref Prasopthum et al., 2015, cited from earlier work.
Data set [7] has as its target T2, CYP2A6. Also on record: made in house; method as in PMID 25857233. The settings on record: cited from earlier work.

Turning to `C/C=C(\C)C(=O)OC1CC(C)C2(O)CCC(C)(/C=C3/OC(=O)C(COC(C)=O)=C31)O2` (stereo not drawn) [Hirsutinolide 6, 8α-tigloyloxyhirsutinolide-13-O-acetate], the “CYP2A13 Mode of inhibition” value on CYP2A13 [1] is “Mixed type”. For the same compound, the half-maximal inhibitory concentration (IC50) on CYP2A13 [1] (10-min pre-incubation in the presence of NADPH, read-out: IC50 CYP2A13 Pre-incubation) was 7.66 ± 0.98 µM; on CYP2A13 [1] (coincubation, coumarin 2 µM, read-out: IC50 CYP2A13 Coincubation), 20.9 ± 1.46 µM; at CYP2A6 [6] (10-min pre-incubation in the presence of NADPH, read-out: IC50 CYP2A6 Pre-incubation) it was 20.8 ± 1.1 µM; on CYP2A6 [6] (coincubation, coumarin 2 µM, read-out: IC50 CYP2A6 Coincubation) it was 37.8 ± 3.5 µM. Moreover, the figures for the Ki at CYP2A13 [1] (coumarin 0–40 µM) and at CYP2A6 [6] (coumarin 0–40 µM) were 7.97 ± 0.78 µM and 30.6 ± 1.5 µM, respectively. For the same compound, the inactivation rate constant (kinact) at CYP2A13 [2] is 0.001 s⁻¹. The KI (inactivation) on CYP2A13 [2] (read-out: CYP2A13 KI (inactivation constant)) was 3.6 ± 1.05 µM; at CYP2A6 [5] (read-out: CYP2A6 KI (inactivation constant)) it was 15.4 ± 1.8 µM. In addition, the activity at 10 µM at CYP2A13 [3] (read-out: Per cent remaining activity, 70 μM K3Fe(CN)6) amounted to 25.9 ± 1.87%; at CYP2A13 [3] (read-out: Per cent remaining activity, 2 mM GSH) it was 33.6 ± 4.8%; at CYP2A13 [3] (read-out: Per cent remaining activity, 5 mM semicarbazide) it was 25 ± 3.81%; at CYP2A13 [3] (read-out: Per cent remaining activity, 2000 U catalase), 26.6 ± 3.86%; on CYP2A13 [3] (read-out: Per cent remaining activity, Dialysis (+) NADPH) it was 22.8 ± 1.13%; at CYP2A13 [3] (read-out: Per cent remaining activity, Dialysis (−) NADPH), 85.3 ± 4.98%. In addition, on CYP2A13 [3] (read-out: Per cent remaining activity, Pre-incubation), the activity at 10 µM stood at 28.4 ± 2.92%. The “inhibition of CYP2A13-mediated nicotine metabolism” value on CYP2A13 [4] was “showed inhibition”. For the same compound, the “CYP2A6 Kinact” value on CYP2A6 [5] was 0.03 ± 0.01^b. In addition, the “CYP2A6 Mode of inhibition” value on CYP2A6 [6] was “Mixed type^b”. In addition, the “inhibition of CYP2A6-mediated nicotine metabolism” value at CYP2A6 [7] is recorded as “showed inhibition”.

The IC50 is the concentration at which inhibition is half-maximal. As a reminder, the Ki is a measure of affinity in units of concentration, obtained from inhibition or displacement. As a reminder, the kinact is the maximal first-order rate at which the target is inactivated.
